In patent US20240083861A1, “HSD17B13 INHIBITORS AND USES THEREOF” (FL2022-001, Inc., priority 2020, published 2024):

Target: T1, Recombinant human HSD17B13 enzyme (Homo sapiens, UniProt Q7Z5P4)
T1 sequence (Q7Z5P4 20-300): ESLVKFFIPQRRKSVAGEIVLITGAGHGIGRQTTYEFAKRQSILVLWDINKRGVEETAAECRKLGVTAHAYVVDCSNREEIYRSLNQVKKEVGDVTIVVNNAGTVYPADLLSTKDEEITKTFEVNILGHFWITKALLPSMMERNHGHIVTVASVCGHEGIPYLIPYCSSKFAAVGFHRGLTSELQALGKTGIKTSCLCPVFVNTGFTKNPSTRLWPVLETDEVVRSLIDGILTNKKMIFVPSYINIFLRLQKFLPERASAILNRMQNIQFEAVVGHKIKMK
Assay: HSD17b13 NAD(P)H-Glo biochemical assay
Settings: 50 uM estradiol, 1 mM NAD+, NAD(P)H-Glo luminescence; read-out: HSD17β13 IC50
Experimental: Example B-1: HSD17b13 NAD(P)H-Glo Biochemical Assay
Recombinant human HSD17B13 enzyme. Substrate: estradiol (Sigma β-Estradiol E8875), 100 mM in DMSO. Cofactor: NAD+ Grade I free acid (Sigma 10127965001), 20 mM in H2O. Assay buffer final concentration: 20 mM Tris pH7.4 with 0.002% Tween-20 and 0.02% BSA. Assay performed in 384 well solid bottom plate (Corning 3570). Enzymatic activity detected by NAD(P)H-Glo™ Detection System (Promega G9062).
Inhibitor compounds were serially diluted in DMSO and then further diluted in assay buffer to a 10× concentration consisting of 1% DMSO.
HSD17b13 enzyme was diluted in 1× assay buffer to the desired enzyme concentration based on the specific activity of the enzyme lot. 20 uL of diluted enzyme was added to each well along with 2.5 uL of 10× inhibitor solution. Assay plate was incubated at RT for 20 minutes, and then 2.5 uL of a 10× substrate/cofactor mix was added to each well for a final concentration of 50 uM estradiol and 1 mM NAD+. Assay plate was incubated at 37° C. for 3 hours. NAD(P)H-Glo™ Detection System reagents were prepared according to manufacturer's specifications, and 25 uL was added to each well. After incubating for 1 hour at RT, luminescence was measured.

Compound	IC50 [nM]
Cn1nc(-c2cc(C(F)(F)F)c(F)c(O)c2F)c2cnc(N3CC4(CCOCC4)C3)cc21 [Compound 9.10, 2,6-Difluoro-3-(1-methyl-6-(7-oxa-2-azaspiro[3.5]nonan-2-yl)-1H-pyrazolo[4,3-c]pyridin-3-yl)-5-(trifluoromethyl)phenol]	< 100
CN(CC1CC1)c1cc2c(cn1)c(-c1cc(C(F)(F)F)c(F)c(O)c1F)nn2C [Compound 9.11, 3-(6-((Cyclopropylmethyl) (methyl)amino)-1-methyl-1H-pyrazolo[4,3-c]pyridin-3-yl)-2,6-difluoro-5-(trifluoromethyl)phenol]	< 100
Cn1nc(-c2cc(C(F)(F)F)c(F)c(O)c2F)c2cnc(N3CC4(COC4)C3)cc21 [Compound 9.12, 2,6-Difluoro-3-(1-methyl-6-(2-oxa-6-azaspiro[3.3]heptan-6-yl)-1H-pyrazolo[4,3-c]pyridin-3-yl)-5-(trifluoromethyl)phenol]	< 100
COC1(C)CN(c2ncc3c(-c4cc(C(F)(F)F)c(F)c(O)c4F)nn(C)c3n2)C1 [Compound 9.13, 2,6-Difluoro-3-(6-(3-methoxy-3-methylazetidin-1-yl)-1-methyl-1H-pyrazolo[3,4-d]pyrimidin-3-yl)-5-(trifluoromethyl)phenol]	< 100
Cn1nc(-c2cc(C(F)(F)F)c(F)c(O)c2F)c2cnc(NC3CCC3)cc21 [Compound 9.14, 3-(6-(Cyclobutylamino)-1-methyl-1H-pyrazolo[4,3-c]pyridin-3-yl)-2,6-difluoro-5-(trifluoromethyl)phenol]	< 100
Cn1nc(-c2cc(C(F)(F)F)c(F)c(O)c2F)c2cnc(NC34CC(C3)C4)nc21 [Compound 9.15, 3-(6-(Bicyclo[1.1.1]pentan-1-ylamino)-1-methyl-1H-pyrazolo[3,4-d]pyrimidin-3-yl)-2,6-difluoro-5-(trifluoromethyl)phenol]	< 100
Cn1nc(-c2cc(C(F)(F)F)c(F)c(O)c2F)c2cnc(NC3CCC3)nc21 [Compound 9.16, 3-(6-(Cyclobutylamino)-1-methyl-1H-pyrazolo[3,4-d]pyrimidin-3-yl)-2,6-difluoro-5-(trifluoromethyl)phenol]	< 100
CN(c1cc2c(cn1)c(-c1cc(C(F)(F)F)c(F)c(O)c1F)nn2C)C1CCOCC1 [Compound 9.17, 2,6-Difluoro-3-(1-methyl-6-(methyl(tetrahydro-2H-pyran-4-yl)amino)-1H-pyrazolo[4,3-c]pyridin-3-yl)-5-(trifluoromethyl)phenol]	< 100
CN(c1ccc2c(-c3cc(C(F)(F)F)c(F)c(O)c3F)nn(C)c2n1)C1CCC1 [Compound 9.18, 3-(6-(Cyclobutyl(methyl)amino)-1-methyl-1H-pyrazolo[3,4-b]pyridin-3-yl)-2,6-difluoro-5-(trifluoromethyl)phenol]	< 100
Cn1nc(-c2cc(C(F)(F)F)c(F)c(O)c2F)c2ccc(N3CCOCC34CC4)cc21 [Compound 9.19, 2,6-Difluoro-3-(1-methyl-6-(7-oxa-4-azaspiro[2.5]octan-4-yl)-1H-indazol-3-yl)-5-(trifluoromethyl)phenol]	< 100
Cn1nc(-c2cc(C(F)(F)F)c(F)c(O)c2F)c2cnc(N3C4CCC3COC4)cc21 [Compound 9.20, 3-(6-(3-Oxa-8-azabicyclo [3.2.1]octan-8-yl)-1-methyl-1H-pyrazolo[4,3-c]pyridin-3-yl)-2,6-difluoro-5-(trifluoromethyl)phenol]	< 100
COCC1(N(C)c2cc3c(cn2)c(-c2cc(C(F)(F)F)c(F)c(O)c2F)nn3C)CCC1 [Compound 9.21, 2,6-Difluoro-3-(6-((1-(methoxymethyl)cyclobutyl)(methyl)amino)-1-methyl-1H-pyrazolo[4,3-c]pyridin-3-yl)-5-(trifluoromethyl)phenol]	< 100
CS(=O)(=O)N1CCN(c2ccc3c(-c4cc(O)c(F)c(C(F)(F)F)c4)n[nH]c3c2)CC1 [Compound 9.23, 2-Fluoro-5-(6-(4-(methylsulfonyl)piperazin-1-yl)-1H-indazol-3-yl)-3-(trifluoromethyl)phenol]	100 to 1000
CS(=O)(=O)N1CCN(c2cc3[nH]nc(-c4cc(O)c(F)c(C(F)(F)F)c4)c3cc2F)CC1 [Compound 9.24, 2-Fluoro-5-(5-fluoro-6-(4-(methylsulfonyl)piperazin-1-yl)-1H-indazol-3-yl)-3-(trifluoromethyl)phenol]	100 to 1000
Cc1cc(-c2n[nH]c3cc(N4CCN(S(C)(=O)=O)CC4)ccc23)c(F)c(O)c1F [Compound 9.25, 2,6-Difluoro-3-methyl-5-(6-(4-(methylsulfonyl)piperazin-1-yl)-1H-indazol-3-yl)phenol]	100 to 1000
Cn1nc(-c2cc(O)c(F)c(C(F)(F)F)c2)c2ccc(N3CCN(S(C)(=O)=O)CC3)cc21 [Compound 9.26, 2-Fluoro-5-(1-methyl-6-(4-(methylsulfonyl)piperazin-1-yl)-1H-indazol-3-yl)-3-(trifluoromethyl)phenol]	100 to 1000
CN(c1cc2c(cn1)c(-c1cc(C(F)(F)F)c(F)c(O)c1F)nn2C)C1CCOC1 (stereo not shown) [Compound 9.27, 2,6-Difluoro-3-(1-methyl-6-(methyl(tetrahydrofuran-3-yl)amino)-1H-pyrazolo[4,3-c]pyridin-3-yl)-5-(trifluoromethyl)phenol]	100 to 1000
Cn1nc(-c2cc(C(F)(F)F)c(F)c(O)c2F)c2cnc(N3CC4CCC3CO4)cc21 (stereo not shown) [Compound 9.28, 3-(6-(2-Oxa-5-azabicyclo[2.2.2]octan-5-yl)-1-methyl-1H-pyrazolo[4,3-c]pyridin-3-yl)-2,6-difluoro-5-(trifluoromethyl)phenol]	< 100
Cn1nc(-c2cc(C(F)(F)F)c(F)c(O)c2F)c2cnc(N(C3CCC3)C3CCOCC3)cc21 [Compound 9.29, 3-(6-(Cyclobutyl(tetrahydro-2H-pyran-4-yl)amino)-1-methyl-1H-pyrazolo[4,3-c]pyridin-3-yl)-2,6-difluoro-5-(trifluoromethyl)phenol]	< 100
C[C@@H]1COCCN1c1cc2c(cn1)c(-c1cc(C(F)(F)F)c(F)c(O)c1F)nn2C [Compound 9.30, (R)-2,6-Difluoro-3-(1-methyl-6-(3-methylmorpholino)-1H-pyrazolo[4,3-c]pyridin-3-yl)-5-(trifluoromethyl)phenol]	< 100
Cn1nc(-c2cc(C(F)(F)F)c(F)c(O)c2F)c2cnc(N3CCOCC3(C)C)cc21 [Compound 9.31, 3-(6-(3,3-Dimethylmorpholino)-1-methyl-1H-pyrazolo[4,3-c]pyridine-3-yl)-2,6-difluoro-5-(trifluoromethyl)phenol]	< 100
CN(c1cc2c(cn1)c(-c1cc(C(F)(F)F)c(F)c(O)c1F)nn2C)C12CC(C1)C2 [Compound 9.32, 3-(6-(Bicyclo[1.1.1]pentan-1-yl(methyl)amino)-1-methyl-1H-pyrazolo[4,3-c]pyridin-3-yl)-2,6-difluoro-5-(trifluoromethyl)phenol]	< 100
Cn1nc(-c2cc(C(F)(F)F)c(F)c(O)c2F)c2cnc(N3CCOC(C)(C)C3)cc21 [Compound 9.33, 3-(6-(2,2-Dimethylmorpholino)-1-methyl-1H-pyrazolo[4,3-c]pyridin-3-yl)-2,6-difluoro-5-(trifluoromethyl)phenol]	< 100
CC(C)n1nc(-c2cc(C(F)(F)F)c(F)c(O)c2F)c2cnc(N3CCOCC34CC4)cc21 [Compound 9.34, 2,6-Difluoro-3-(1-isopropyl-6-(7-oxa-4-azaspiro[2.5]octan-4-yl)-1H-pyrazolo[4,3-c]pyridin-3-yl)-5-(trifluoromethyl)phenol]	< 100
Cn1nc(-c2cc(C(F)(F)F)c(F)c(O)c2F)c2cnc(N3CCOCC34CCC4)cc21 [Compound 9.35, 2,6-Difluoro-3-(1-methyl-6-(8-oxa-5-azaspiro[3.5]nonan-5-yl)-1H-pyrazolo[4,3-c]pyridin-3-yl)-5-(trifluoromethyl)phenol]	< 100
CO[C@H]1C[C@@H](N(C)c2cc3c(cn2)c(-c2cc(C(F)(F)F)c(F)c(O)c2F)nn3C)C1 [Compound 9.36, 2,6-Difluoro-3-(6-((cis-3-methoxycyclobutyl)(methyl)amino)-1-methyl-1H-pyrazolo[4,3-c]pyridin-3-yl)-5-(trifluoromethyl)phenol]	< 100
CCn1nc(-c2cc(C(F)(F)F)c(F)c(O)c2F)c2cnc(N3CCOCC34CC4)cc21 [Compound 9.37, 3-(1-Ethyl-6-(7-oxa-4-azaspiro[2.5]octan-4-yl)-1H-pyrazolo[4,3-c]pyridin-3-yl)-2,6-difluoro-5-(trifluoromethyl)phenol]	< 100

Same assay, conditions: at 10 uM compound; read-out: HSD17β13 % inhibition at 10 uM

Compound	inhibition at 10 µM [%]
CS(=O)(=O)N1CCN(c2ccc3c(-c4cc(O)cc(C(F)(F)F)c4F)n[nH]c3c2)CC1 [Compound 9.22, 4-Fluoro-3-(6-(4-(methylsulfonyl)piperazin-1-yl)-1H-indazol-3-yl)-5-(trifluoromethyl)phenol]	36
